Test results as given in the supplement of paper PMC10307832.

Key:
Assay in all cases: relative viability (nuclei count vs DMSO), 5 days (fraction); higher = more cells survive
[1] = compound: OCc1c[nH]c2ccccc12 [Indole-3-carbinol] + Cc1nc(NC(=O)N2CCC[C@H]2C(N)=O)sc1-c1ccnc(C(C)(C)C(F)(F)F)c1 [Alpelisib] (partner 2 µM)
In short: (§1)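 For relative viability, nuclei counts in treated wells were divided by those in vehicle wells. Lung cancer cell lines had been pin-tool dosed in 1536-well plates the day after seeding and cultured for 5 days, then fixed and stained in one step (final 0.05% Triton X-100, 1% formaldehyde, 1 ug/ml Hoechst) and imaged at 4×. Doses were one drug alone or a fixed anchor-drug dose plus five library-drug doses (not always all listed) in √10 steps, and values are duplicate-plate medians.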

[2] = compound: OCc1c[nH]c2ccccc12 [Indole-3-carbinol] + CS(=O)(=O)N1CCN(Cc2cc3nc(-c4cccc5[nH]ncc45)nc(N4CCOCC4)c3s2)CC1 [Pictilisib] (partner 1 µM)
In short: as §1

[3] = compound: OCc1c[nH]c2ccccc12 [Indole-3-carbinol] + CS(=O)(=O)CCNCc1ccc(-c2ccc3ncnc(Nc4ccc(OCc5cccc(F)c5)c(Cl)c4)c3c2)o1 [Lapatinib] (partner 2 µM)
In short: as §1

[4] = compound: OCc1c[nH]c2ccccc12 [Indole-3-carbinol] + N=C(N)NC(=N)NCCc1ccccc1 [Phenformin] (partner 250 µM)
In short: as §1

[5] = compound: OCc1c[nH]c2ccccc12 [Indole-3-carbinol] + Cc1nc(Nc2ncc(C(=O)Nc3c(C)cccc3Cl)s2)cc(N2CCN(CCO)CC2)n1 [Dasatinib] (partner 0.075 µM)
In short: as §1

| Cell Line | relative viability ([1]; first compound 0.253 µM) | relative viability ([1]; first compound 0.8 µM) | relative viability ([1]; first compound 2.53 µM) | relative viability ([1]; first compound 8 µM) | relative viability ([2]; first compound 0.253 µM) | relative viability ([2]; first compound 0.8 µM) | relative viability ([2]; first compound 2.53 µM) | relative viability ([2]; first compound 8 µM) | relative viability ([3]; first compound 0.253 µM) | relative viability ([3]; first compound 0.8 µM) | relative viability ([3]; first compound 2.53 µM) | relative viability ([3]; first compound 8 µM) | relative viability ([4]; first compound 0.253 µM) | relative viability ([4]; first compound 0.8 µM) | relative viability ([4]; first compound 2.53 µM) | relative viability ([4]; first compound 8 µM) | relative viability ([5]; first compound 0.253 µM) | relative viability ([5]; first compound 0.8 µM) | relative viability ([5]; first compound 2.53 µM) | relative viability ([5]; first compound 8 µM) |
| --- | --- | --- | --- | --- | --- | --- | --- | --- | --- | --- | --- | --- | --- | --- | --- | --- | --- | --- | --- | --- |
| NCI-H2126 | 0.751 | 0.808 | 0.714 | 0.764 | 0.469 | 0.483 | 0.518 | 0.498 | 0.761 | 0.741 | 0.78 | 0.748 | 0.51 | 0.518 | 0.525 | 0.512 | 0.618 | 0.683 | 0.592 | 0.632 |
| NCI-H2170 | 0.794 | 0.815 | 0.738 | 0.81 | 0.329 | 0.308 | 0.322 | 0.311 | 0.281 | 0.28 | 0.253 | 0.289 | 0.451 | 0.385 | 0.432 | 0.418 | 0.588 | 0.644 | 0.703 | 0.594 |
| NCI-H2228 | 0.697 | 0.902 | 0.779 | 0.629 | 0.514 | 0.374 | 0.349 | 0.506 | 1.12 | 1.17 | 1.2 | 1.32 | 0.327 | 0.354 | 0.365 | 0.383 | 0.501 | 0.637 | 0.595 | 0.562 |
| NCI-H2347 | 1.06 | 1.08 | 1.14 | 0.868 | 0.673 | 0.532 | 0.719 | 0.599 | 0.937 | 1.03 | 1.08 | 0.672 | 0.405 | 0.34 | 0.496 | 0.435 | 0.303 | 0.26 | 0.313 | 0.344 |
| NCI-H2405 | 0.901 | 0.661 | 0.988 | 0.749 | 0.49 | 0.472 | 0.489 | 0.483 | 1.06 | 1.08 | 1.16 | 1.02 | 0.426 | 0.376 | 0.391 | 0.44 | 0.212 | 0.211 | 0.2 | 0.214 |
| NCI-H3122 | 0.878 | 0.879 | 0.855 | 0.74 | 0.553 | 0.673 | 0.592 | 0.588 | 1.05 | 1.01 | 1.04 | 1.05 | 0.391 | 0.364 | 0.413 | 0.381 | 0.839 | 0.771 | 0.969 | 0.851 |
| PC-3 [JPC-3] | 1.08 | 1.13 | 1.03 | 0.967 | 0.817 | 0.801 | 0.649 | 0.73 | 0.462 | 0.441 | 0.399 | 0.439 | 0.477 | 0.483 | 0.483 | 0.473 | 0.979 | 1.02 | 0.986 | 0.949 |
| PC-14 | 0.995 | 0.955 | 0.888 | 0.93 | 0.738 | 0.875 | 0.735 | 0.652 | 0.288 | 0.321 | 0.342 | 0.266 | 0.586 | 0.536 | 0.582 | 0.5 | 0.265 | 0.287 | 0.27 | 0.26 |
| RERF-LC-KJ | 0.841 | 0.783 | 0.814 | 0.83 | 0.512 | 0.541 | 0.562 | 0.581 | 0.866 | 0.891 | 0.802 | 0.787 | 0.392 | 0.415 | 0.428 | 0.401 | 0.815 | 0.842 | 0.846 | 0.762 |
| SK-LU-1 | 1.01 | 1.03 | 1.07 | 0.99 | 0.568 | 0.405 | 0.522 | 0.551 | 0.941 | 0.903 | 1.06 | 0.829 | 0.582 | 0.57 | 0.58 | 0.534 | 0.194 | 0.211 | 0.178 | 0.208 |
| SK-MES-1 | 0.908 | 0.979 | 0.833 | 0.764 | 0.416 | 0.356 | 0.321 | 0.4 | 0.455 | 0.501 | 0.452 | 0.421 | 0.689 | 0.733 | 0.693 | 0.61 | 0.472 | 0.343 | 0.387 | 0.417 |
| SW 1573 | 0.724 | 0.833 | 0.822 | 0.761 | 0.361 | 0.577 | 0.544 | 0.425 | 1.2 | 1.05 | 1.16 | 1.08 | 0.34 | 0.449 | 0.404 | 0.363 | 0.553 | 0.653 | 0.666 | 0.407 |
| UMC-11 | 0.933 | 1.02 | 0.981 | 0.955 | 0.792 | 0.836 | 0.764 | 0.789 | 1.03 | 0.953 | 0.91 | 0.951 | 0.33 | 0.319 | 0.339 | 0.324 | 0.482 | 0.451 | 0.514 | 0.45 |
